# Experiments:
# [1] = cited from earlier work
# Protocol: We carried out a comparative study of blood flow imaging in mice using ICG-Cys (ICG-maleimide conjugated with a Cys residue) and pHLIP ICG (2.5 nmol of each). […] The most widely used is the near-infrared emitting ICG, first approved for angiography and subsequently used in ophthalmology and elsewhere for imaging blood vessels[36]–[41]. […] If administered intraperitoneally, ICG is found in the nearest lymph nodes within 15 min, and in the regional lymph nodes within 1–2 h[44],[45]. The IV dose of ICG varies from 0.5 to 2.0 ...
# [2] = Peripheral blood micronucleus test in rats (GLP); assay type: in vivo, Sprague Dawley rats; settings: male rats, 10 mg/kg oral gavage twice, 24 hours apart
# Protocol: The objective of this GLP study performed at CRL was to determine the potential genotoxicity of pHLIP ICG when given by i.v. bolus injection to rats using the peripheral blood micronucleus test.
# In order to determine the maximum tolerated dose, a dose-range finding test was performed prior to the main test, where male and female rats (3 animals/sex) were administered a single dose of pHLIP ICG by i.v. injection. The doses evaluated were 14 mg/kg and 25 mg/kg using 5% EtOH in PBS, pH 7.4 as the vehicle.
# Blood was collected for micronuclei evaluation at 45 hours post-dose (Groups 3 to 7), and 69 hours post-dose (Groups 3 and 7). The proportion of immature erythrocytes among total erythrocytes in the peripheral blood (%RETs) and the percentage of micronucleated reticulocytes (%MN-RETs) in the NC group were within the laboratory historical negative control range. […] The results from both NC and PC groups confirmed the validity of the assay.
# progesterone receptor B = target: T1, progesterone receptor B (Homo sapiens, UniProt P06401); assay: Progesterone receptor B radioligand binding assay
# T1 construct: purchased Eurofins Panlabs, Inc
# T1 sequence (P06401 1-933): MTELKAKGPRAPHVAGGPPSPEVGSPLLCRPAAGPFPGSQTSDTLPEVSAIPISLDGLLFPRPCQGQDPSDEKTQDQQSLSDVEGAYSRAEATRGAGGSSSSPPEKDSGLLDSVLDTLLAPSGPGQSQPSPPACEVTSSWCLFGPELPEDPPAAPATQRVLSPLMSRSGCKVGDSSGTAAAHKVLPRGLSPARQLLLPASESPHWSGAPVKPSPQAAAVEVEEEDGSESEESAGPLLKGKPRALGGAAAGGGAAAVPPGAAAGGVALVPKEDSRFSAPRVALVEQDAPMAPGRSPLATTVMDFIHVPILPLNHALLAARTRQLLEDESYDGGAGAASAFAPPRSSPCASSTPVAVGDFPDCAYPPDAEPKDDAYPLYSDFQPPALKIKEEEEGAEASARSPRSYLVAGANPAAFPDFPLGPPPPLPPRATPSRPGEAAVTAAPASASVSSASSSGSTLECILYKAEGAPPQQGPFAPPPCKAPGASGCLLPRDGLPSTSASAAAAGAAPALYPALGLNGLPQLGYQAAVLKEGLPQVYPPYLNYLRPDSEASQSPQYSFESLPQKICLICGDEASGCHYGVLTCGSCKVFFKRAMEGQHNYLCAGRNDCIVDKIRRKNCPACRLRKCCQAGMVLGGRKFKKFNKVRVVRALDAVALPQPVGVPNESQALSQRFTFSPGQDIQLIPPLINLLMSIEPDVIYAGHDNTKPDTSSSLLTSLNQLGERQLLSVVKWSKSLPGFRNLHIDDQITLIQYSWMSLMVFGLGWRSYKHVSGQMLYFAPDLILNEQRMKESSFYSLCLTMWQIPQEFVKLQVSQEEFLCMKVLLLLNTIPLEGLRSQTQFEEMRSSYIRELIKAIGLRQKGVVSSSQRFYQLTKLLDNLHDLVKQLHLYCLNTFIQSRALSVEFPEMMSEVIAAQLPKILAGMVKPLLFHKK
# Protocol: The pHLIP ICG enzyme binding assays were performed by Eurofins Panlabs, Inc. according to standard assay protocols. The following enzymes were used in the binding assay with 2 µM of pHLIP ICG : acetyl cholinesterase; peptidase (angiotensin converting enzyme); ATPase (Na^+/K^+, pig heart); CTSG peptidase (cathepsin G); cyclooxygenases COX-1 and COX-2; monoamine oxidases MAO-A and MAO-B; phosphodiesterases PDE3 and PDE4D2; protein tyrosine kinase (insulin receptor); protein tyrosine kinase (LCK); protein serine/threonine kinase (PKC, non-selective); adenosine A1 and A2A; adenosine transporter; adrenergic α1A, α1B, α1D, α2A, α2B, β1 and β2; norepinephrine transporter (NET); androgen (testosterone); angiotensin AT1; bradykinin B2; calcium channels L-type (benzothiazepine, dihydropyridine, phenylalkylamine); calcium channel N-type; cannabinoid CB1 and CB2; chemokine CCR1; cholecystokinin CCK1 (CCKA) and CCK2 (CCKB); dopamine D1, D2L and D2S; dopamine transporter (DAT); endothelin ETA; estrogen ERα; GABA transporter; GABAAs (flunitrazepam, central; Ro-15-1788, hippocampus and chloride channel, TBOB); glucocorticoid; glutamate (AMPA, kainate, agonism NMDA, glycine NMDA, phencyclidine NMDA, polyamine NMDA, and mGlu5 metabotropic); glycine (strychnine-sensitive); histamine H1 and H2; chemokine CXCR2 (IL-8RB); cysteinyl leukotriene (CysLT1); melanocortin MC1 and MC4; muscarinic M1, M2, M3, and M4; tachykinin NK1; neuropeptide Y Y1; nicotinic acetylcholine α1 (bungarotoxin) and α3β4; opiate δ1 (OP1, DOP), κ (OP2, KOP), and μ (OP3, MOP); platelet activating factor (PAF); potassium channels (KATP and hERG); PPARγ; serotonin (5-hydroxytryptamine) 5-HT1A, 5-HT1B, 5-HT2A, 5-HT2B, 5-HT2C, and 5-HT3; serotonin transporter (SERT); sodium channel (site 2); vasopressin V1A; progesterone (PR-B). The most significant inhibitory effect of pHLIP ICG was observed on progesterone B and was followed by an additional study to identify IC50 values, which were determined by a non-linear least square regression analysis using MathIQTM (ID Business Solutions Ltd., UK). The Ki values were calculated by the equation from Cheng and Prusoff [Cheng, Y., Prusoff, W.H., Biochem. Pharmacol. 22:3099-3108, 1973] using the observed IC50 of pHLIP ICG , the concentration of radioligand employed in the assay, and the historical values for the KD of the ligand (Eurofins Panlabs data). The Hill coefficient (nH), defining the slope of the competitive binding curve, was calculated using MathIQTM. The IC50, Ki, and nH values were established for pHLIP ICG and compared to the known progesterone agonist, R-2050 (Figure S3).
# Figure SI,3. […]
smiles,measurement,setting,value
"CC1(C)C(/C=C/C=C/C=C/C=C2\N(CCCCS(=O)(=O)O)c3ccc4ccccc4c3C2(C)C)=[N+](CCCCS(=O)(=O)[O-])c2ccc3ccccc3c21 [ICG, indocyanine green]",Time to be found in the nearest lymph nodes,[1]; administered intraperitoneally,≤ 15 min
same,Time to be found in the regional lymph nodes,[1]; administered intraperitoneally,1 to 2 h
same,Clearance from the blood,"[1]; as contrast agent for imaging blood flow, no reference given",within a few minutes
same,Half-life in blood,[1],2.5 min
same,Time of appearance in the bile after injection,[1]; cleared through the liver,about 8 min
same,Acute toxicity,[1]; high dose of 5 mg/kg,no acute toxicity has been observed
"O=P1(N(CCCl)CCCl)NCCCO1 (stereo not drawn) [PC, cyclophosphamide monohydrate, reference compound]","Micronuclei, positive control",[2],statistically significant increase in micronuclei
"CCC(=O)[C@@]1(C)CC[C@H]2[C@@H]3CCC4=CC(=O)CCC4=C3CC[C@@]21C [R-2050, reference compound]",Ki,"progesterone receptor B; Cheng-Prusoff from IC50, reference agonist, read-out: Ki progesterone receptor B",0.26 nM
same,IC50,"progesterone receptor B; radioligand binding, 20 hrs, reference agonist, read-out: IC50 progesterone receptor B",0.33 nM

# From article PMC7591906, “pHLIP ICG for delineation of tumors and blood flow during fluorescence-guided surgery” (Scientific Reports, 2020)
